This note sets out measurements from paper PMC7616191 (Molecular pharmacology, 2018).

In this assay the target is T1, human muscarinic acetylcholine M1 receptor (hM1 mAChR) (Homo sapiens, UniProt P11229).
T1 sequence (P11229 1-460): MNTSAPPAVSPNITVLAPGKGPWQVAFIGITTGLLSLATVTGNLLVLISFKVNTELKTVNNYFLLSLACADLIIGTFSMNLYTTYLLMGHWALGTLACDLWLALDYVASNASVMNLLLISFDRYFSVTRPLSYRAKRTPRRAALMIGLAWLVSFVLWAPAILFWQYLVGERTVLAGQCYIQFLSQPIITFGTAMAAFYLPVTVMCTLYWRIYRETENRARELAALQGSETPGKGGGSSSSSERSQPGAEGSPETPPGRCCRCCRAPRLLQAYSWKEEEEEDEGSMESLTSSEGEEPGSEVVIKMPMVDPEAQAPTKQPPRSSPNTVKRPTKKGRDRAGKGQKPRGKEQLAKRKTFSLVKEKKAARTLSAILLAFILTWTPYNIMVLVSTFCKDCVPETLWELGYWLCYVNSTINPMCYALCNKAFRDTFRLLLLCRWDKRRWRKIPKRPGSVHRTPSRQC
Kind of assay: IP1 accumulation. In kind it is cell-based. As to conditions: vehicle-pretreated control; orthosteric agonist; […]°C, […] h, pH […].

As for `C[N+](C)(C)CC#CCN1CCCC1=O` [Oxo-M], the “pEC50^a” value is on record as 6.08 ± 0.13.
